The values below come from patent US20140206017A1, “LYSYL OXIDASE-LIKE 2 ASSAY AND METHODS OF USE THEREOF” (priority 2011, published 2014).

“And” between values parts separate entries of the source, which are not always exact repeats. Equal values may be shown once. Where a name gives a salt, the structure may show the parent alone. A value given as a limit tells only on which side of the number the result lay.

One assay deals with serum LOXL2. Briefly: Serum LOXL2 by ELISA at baseline and week 240 of TDF treatment in CHB subjects. Type of assay: in vivo, human. The conditions noted are these: for Median serum LOXL2: LOQ = 440 pg/mL. The source says:
At week 240 following treatment, 42 of these 81 subjects had cirrhosis regression, 16 had persistent cirrhosis, 2 had progressed to cirrhosis over the course of treatment, 18 were non-cirrhotic subjects with no change in fibrosis, and 3 were non-cirrhotic subjects with at least a 2-point reduction in fibrosis as measured by Ishak.
In general terms: An ELISA detects its analyte on a solid surface through an enzyme-linked reagent.

Assay [1] relates to liver fibrosis in subjects with chronic hepatitis B (CHB). Kind of assay: Liver biopsy (Ishak fibrosis score) in CHB subjects before and after 240 weeks of TDF. The conditions noted are these: for Chance of regression of cirrhosis at week 240: cirrhotic subjects. Type of assay: in vivo, human. The method, then: Serum LOXL2 levels were assessed in subjects with chronic hepatitis B (CHB) and liver fibrosis, both before treatment and after 240 weeks of treatment with 300 mg tenofovir disoproxil fumarate (TDF). Liver biopsies were taken from 348 human subjects with CHB, prior to treatment and after 240 weeks of treatment with TDF. The biopsies were scored by pathologists using the Ishak scale for assessment of fibrosis. […] Of the 96 subjects who began the study with biopsy-proven cirrhosis, 74% had regression of cirrhosis after 240 weeks of treatment. […] At week 240 following treatment, 42 of these 81 subjects had cirrhosis regression, 16 had persistent cirrhosis, 2 had progressed to cirrhosis over the course of treatment, 18 were non-cirrhotic subjects with no change in fibrosis, and 3 were non-cirrhotic subjects with at least a 2-point reduction in fibrosis as measured by Ishak.

The test system of another assay is cancer. Kind of assay: Cancer patients treated with anti-LOXL2 antibody AB0024: time to progression. The following applies: individual cancer patients. Type of assay: in vivo, human. The source says:
Blood samples were obtained at Day 1 on which anti-LOXL2 treatment began (sample taken before anti-LOXL2 treatment); and on days 29 and 57 following the beginning of anti-LOXL2 treatment.

A further assay addresses T1, LOXL2 (Homo sapiens, UniProt Q9Y4K0).
T1 construct: from tissue; host or cells: plasma and serum of human cancer patients
T1 sequence (Q9Y4K0 26-774): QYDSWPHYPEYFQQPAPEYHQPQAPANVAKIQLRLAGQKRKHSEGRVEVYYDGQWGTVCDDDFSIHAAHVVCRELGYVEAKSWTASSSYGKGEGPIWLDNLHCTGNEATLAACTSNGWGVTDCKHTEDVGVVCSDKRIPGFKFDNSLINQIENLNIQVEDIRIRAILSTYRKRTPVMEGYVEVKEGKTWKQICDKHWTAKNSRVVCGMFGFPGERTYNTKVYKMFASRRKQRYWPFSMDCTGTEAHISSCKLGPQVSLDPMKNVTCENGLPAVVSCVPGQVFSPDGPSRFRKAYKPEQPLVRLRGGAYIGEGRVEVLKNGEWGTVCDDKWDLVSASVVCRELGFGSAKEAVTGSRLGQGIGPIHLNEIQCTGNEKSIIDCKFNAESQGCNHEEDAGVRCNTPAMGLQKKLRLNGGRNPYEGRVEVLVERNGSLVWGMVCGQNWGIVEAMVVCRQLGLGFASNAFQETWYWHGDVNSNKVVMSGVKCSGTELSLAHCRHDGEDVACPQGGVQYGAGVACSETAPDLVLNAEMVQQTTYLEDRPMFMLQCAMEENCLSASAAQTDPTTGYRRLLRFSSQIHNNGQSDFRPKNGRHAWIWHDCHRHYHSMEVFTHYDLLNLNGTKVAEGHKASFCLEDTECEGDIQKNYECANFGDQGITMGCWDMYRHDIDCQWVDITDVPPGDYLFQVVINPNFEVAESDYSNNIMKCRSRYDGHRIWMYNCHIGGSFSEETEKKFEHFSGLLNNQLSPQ
Briefly: LOXL2 immunoassay of plasma/serum from patients receiving AB0024. Format: in vivo. The conditions noted are these: samples day 1 (pre-dose), 29 and 57. The protocol:
Standard single-spot uncoated electrode plates from MesoScale Discovery (MSD) (cat #L15XA-3) were coated overnight at 4° C. with a 30 μl volume of a solution of 3 μg/ml rabbit anti-human-LOXL2 polyclonal antibody formulated in phosphate-buffered saline (PBS). After coating, the wells of the plates were blocked by addition of a solution of 5% (w/v) Blocker A (MSD cat#R93AA-1) in PBS. After the blocking step, plates were washed 3 times in PBS containing 0.05% Tween-20 non-ionic detergent, using an automated plate washer. Human samples to be tested (serum or plasma) were prepared separately by diluting them 1:4 in PBS (1 part serum, 3 parts PBS). Samples were then added to each well of the plate. Samples were incubated with rotary shaking (300-600 rpm) for 2-3 hours at room temperature. After sample binding, the plates were again washed 3 times in PBS containing 0.05% Tween-20 detergent, using an automated plate washer. […]
1× Read Buffer T with Surfactants (MSD cat#R92TC-2) was added to each well, followed by immediate measurement of the plate on the MSD SectorImager 2400 instrument.
Test human samples were given a relative quantitative value of LOXL2 by comparison to the calibrator curve on the same assay plate, comprised of purified recombinant human LOXL2 protein (R&D Systems) added in known concentrations to human serum or plasma pooled from normal healthy donors. […]

[2] abbreviates: Wk 240, Persistent Cirrhosis (n = 16), baseline 31%.
Setting [3] is: baseline to Wk 240, Non-Cirrhotic No Δ (n = 18).
Where [4] appears, read: baseline to Wk 240, Persistent Cirrhosis (n = 16).
Where [5] appears, read: baseline to Wk 240, Reversed Cirrhosis (n = 42).

In the case of `CC(C)OC(=O)OCOP(=O)(CO[C@H](C)Cn1cnc2c(N)ncnc21)OCOC(=O)OC(C)C` [TDF, tenofovir disoproxil fumarate], the “Mean serum LOXL2” value in the assay with serum LOXL2 (Week 240, Ishak Stage 0-3, N 56 (baseline 510.2, N 18)) turned out to be 746.8 pg/mL; with serum LOXL2 (Week 240, Ishak Stage 4-6, N 25 (baseline 3298.2, N 63)), 753.5 pg/mL; in the assay on serum LOXL2 (Week 240, all subjects N 81 (baseline 2678.6)), 748.9 pg/mL; in the assay on serum LOXL2 (Wk 240, Non-Cirrhotic No Δ (n = 18), baseline 798.4), 436.8 pg/mL; in the assay with serum LOXL2 (Wk 240, Persistent Cirrhosis (n = 16), baseline 9124.1), 603.8 pg/mL; with serum LOXL2 (Wk 240, Reversed Cirrhosis (n = 42), baseline 1355.0), 922.6 pg/mL. Also, the “Subjects with serum LOXL2 >3000 pg/mL” value with serum LOXL2 (Wk 240, Non-Cirrhotic No Δ (n = 18), baseline 6%) was 0 (0%); with serum LOXL2 (setting [2]) it was 0 (0%); in the assay on serum LOXL2 (Wk 240, Reversed Cirrhosis (n = 42), baseline 5%), 3 (7%). In addition, the “Subjects with serum LOXL2 <LoD” value with serum LOXL2 (Wk 240, Non-Cirrhotic No Δ (n = 18), baseline 22%) was 8 (44%); with serum LOXL2 (Wk 240, Persistent Cirrhosis (n = 16), baseline 6%) it was 2 (13%); with serum LOXL2 (Wk 240, Reversed Cirrhosis (n = 42), baseline 2%) it was 13 (31%). Besides, the “Subjects with serum LOXL2 <LoQ” value was 14 (78%) with serum LOXL2 (Wk 240, Non-Cirrhotic No Δ (n = 18), baseline 56%); 8 (50%) in the assay on serum LOXL2 (Wk 240, Persistent Cirrhosis (n = 16), baseline 13%); 29 (69%) in the assay on serum LOXL2 (Wk 240, Reversed Cirrhosis (n = 42), baseline 10%). Besides, the “Subjects with serum LOXL2 <1000 pg/mL” value in the assay on serum LOXL2 (Wk 240, Non-Cirrhotic No Δ (n = 18), baseline 72%) was 15 (83%); in the assay on serum LOXL2 (setting [2]), 14 (88%); with serum LOXL2 (Wk 240, Reversed Cirrhosis (n = 42), baseline 48%) it was 35 (83%). The “Median serum LOXL2” value in the assay on serum LOXL2 (Wk 240, Non-Cirrhotic No Δ (n = 18), baseline <LOQ) is given as “<LOQ”; with serum LOXL2 (Wk 240, Persistent Cirrhosis (n = 16), baseline 1863), “LOQ”; in the assay on serum LOXL2 (Wk 240, Reversed Cirrhosis (n = 42), baseline 1073), “<LOQ”. Also, the “Subjects with Decrease in serum LOXL2” value in the assay with serum LOXL2 (setting [3]) was 9 (50%); in the assay on serum LOXL2 (setting [4]), 14 (88%); in the assay with serum LOXL2 (setting [5]), 37 (88%). Besides, the “Subjects with Increase in serum LOXL2” value in the assay on serum LOXL2 (setting [3]) was 2 (11%); with serum LOXL2 (setting [4]) it was 0 (0%); in the assay with serum LOXL2 (setting [5]) it was 5 (12%). For the same molecule, the “Cirrhotic subjects with a reduction in LOXL2 levels” value in the assay on serum LOXL2 (baseline to week 240) is recorded as 88%. In the assay with serum LOXL2 (of the 81 subjects, baseline to week 240), the “Subjects with a reduction in serum LOXL2 levels” value amounted to 79%. Moreover, the “Subjects with no change in LOXL2 levels” value in the assay on serum LOXL2 (of the 81 subjects, each with baseline below limit of quantitation) was found to be 11%. In addition, the “Subjects with improvement in, or no progression of, liver fibrosis” value in assay [1] (348 CHB subjects, 300 mg, 240 weeks) is reported as 96.3%. The “Chance of regression of cirrhosis at week 240” value was determined as 29% in assay [1] (baseline serum LOXL2 above 3000 pg/mL); 70% in assay [1] (baseline serum LOXL2 between 1500 and 3000 pg/mL); 88% in assay [1] (baseline serum LOXL2 less than 1500 pg/mL). The “Patients with regression or improvement of Ishak fibrosis score” value in assay [1] (of the 60 patients with baseline cirrhosis, 240 weeks) was 72%. In addition, the “Subjects with regression of cirrhosis” value in assay [1] (of the 96 subjects with biopsy-proven cirrhosis at start, after 240 weeks) came to 74%.

B1: AB0024: humanized anti-LOXL2 monoclonal antibody; inhibits LOXL2 enzymatic activity, binds epitope within SRCR3-4; VH SEQ ID NO:8, VL SEQ ID NO:9 (antibody, V domains shown)
VH: QVQLVQSGAEVKKPGASVKVSCKASGYAFTYYLIEWVRQAPGQGLEWIGVINPGSGGTNYNEKFKGRATITADKSTSTAYMELSSLRSEDTAVYFCARNWMNFDYWGQGTTVTVSS
VL: DIVMTQTPLSLSVTPGQPASISCRSSKSLLHSNGNTYLYWFLQKPGQSPQFLIYRMSNLASGVPDRFSGSGSGTDFTLKISRVEAEDVGVYYCMQHLEYPYTFGGGTKVEIK
B1: the Time to progression in the assay on cancer (dose level 1 mpk) was 44 days and Stable and 57 days; in the assay with cancer (dose level 3 mpk), 38 days and 56 days and 42 days; with cancer (dose level 10 mpk), 57 days and 30 days and 51 days. Besides, the “Effect of antibody administration on LOXL2 signal in plasma/serum” value with LOXL2 is on record as “did not clear or mask the LOXL2 signal”.
